Laboratory results as given in article PMC9090415, “Discovery of small molecule inhibitors of Plasmodium falciparum apicoplast DNA polymerase” (Journal of Enzyme Inhibition and Medicinal Chemistry, 2022).

Target: P. falciparum apicoplast DNA polymerase (Pf-apPOL) (Plasmodium falciparum, UniProt Q8ILY1)
Assay: Fluorescence-based high-throughput DNA polymerase assay (molecular beacon), primary screen and dose-response;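 on % inhibition ApPOL 90': test concentration in µM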;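 on % inhibition apPOL 180': test concentration in µM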
Type: biochemical
Conditions: for DNA Pol: 90 min, 10 µM
Procedure, shortened: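 Single-point screening used 10 µM compound with 20 nM polymerase, 20 nM hairpin substrate and 6 µM dNTPs for 90 min at 25 °C. Confirmatory titrations (2.5–80 µM) followed fluorescence at three times, and IC50 was derived from a fit including a cooperativity term n.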

Sequence of P. falciparum apicoplast DNA polymerase (Pf-apPOL) (Q8ILY1 entry or part of it): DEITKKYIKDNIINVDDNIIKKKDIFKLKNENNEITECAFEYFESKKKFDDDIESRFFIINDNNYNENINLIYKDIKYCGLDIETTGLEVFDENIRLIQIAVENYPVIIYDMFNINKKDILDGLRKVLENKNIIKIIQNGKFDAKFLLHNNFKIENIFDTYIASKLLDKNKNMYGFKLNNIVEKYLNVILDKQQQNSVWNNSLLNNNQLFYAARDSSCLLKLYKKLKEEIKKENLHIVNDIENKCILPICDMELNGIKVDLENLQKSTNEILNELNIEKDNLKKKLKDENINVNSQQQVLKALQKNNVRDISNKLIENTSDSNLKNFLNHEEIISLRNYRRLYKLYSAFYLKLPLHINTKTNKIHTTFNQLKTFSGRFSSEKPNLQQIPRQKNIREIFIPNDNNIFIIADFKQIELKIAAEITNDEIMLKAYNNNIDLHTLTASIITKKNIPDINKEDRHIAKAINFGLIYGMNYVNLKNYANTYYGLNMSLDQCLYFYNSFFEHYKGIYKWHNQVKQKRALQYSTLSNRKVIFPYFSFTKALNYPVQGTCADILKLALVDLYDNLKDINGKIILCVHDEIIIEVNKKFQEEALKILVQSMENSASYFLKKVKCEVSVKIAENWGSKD

## N#Cc1c(C2CCCCC2)nc(Sc2ccc(C(F)(F)F)cc2[N+](=O)[O-])[nH]c1=O [Molecule 20, N#Cc1c(=O)[nH]c(nc1C1CCCCC1)Sc1ccc(cc1N(=O)=O)C(F)(F)F]
'DNA Pol' of the 186 hits list (primary screen result), unit not given
  DNA Pol: 99
DRC-1, concentration 2.5
  % inhibition Apo pol 10': 13.479%
DRC-1, concentration 5
  % inhibition Apo pol 10': 22.3075%
DRC-1, concentration 10
  % inhibition Apo pol 10': 58.5642%
DRC-1, concentration 20
  % inhibition Apo pol 10': 88.1341%
DRC-1, concentration 40
  % inhibition Apo pol 10': 96.8636%
DRC-1, concentration 80
  % inhibition Apo pol 10': 98.9889%
DRC-1, 90', concentration 2.5
  % inhibition Apol 90': 11.5568%
DRC-1, 90', concentration 5
  % inhibition Apol 90': 20.2551%
DRC-1, 90', concentration 10
  % inhibition Apol 90': 55.7655%
DRC-1, 90', concentration 20
  % inhibition Apol 90': 84.5767%
DRC-1, 90', concentration 40
  % inhibition Apol 90': 95.5899%
DRC-1, 90', concentration 80
  % inhibition Apol 90': 98.5408%
DRC-1, 180', concentration 2.5
  % inhibition apPOL 180': 4.639%
DRC-1, 180', concentration 5
  % inhibition apPOL 180': 10.6134%
DRC-1, 180', concentration 10
  % inhibition apPOL 180': 43.2916%
DRC-1, 180', concentration 20
  % inhibition apPOL 180': 78.9137%
DRC-1, 180', concentration 40
  % inhibition apPOL 180': 94.1749%
DRC-1, 180', concentration 80
  % inhibition apPOL 180': 98.1002%
DRC-2, 5', concentration 20 (unit not given)
  % inhibition Apo pol 5': 55%
DRC-2, 40', concentration 10 (unit not given)
  % inhibition Apol 40': 55%
DRC-2, 90', concentration 40 (unit not given)
  % inhibition ApPOL 90': 77%
DRC-2, 180', concentration 40 (unit not given)
  % inhibition apPOL 180': 77%
DRC-2, 5', concentration 2.5
  % inhibition Apo pol 5': 3.66%
DRC-2, 5', concentration 5
  % inhibition Apo pol 5': 11%
DRC-2, 5', concentration 10
  % inhibition Apo pol 5': 43%
DRC-2, 5', concentration 20
  % inhibition Apo pol 5': 55%
DRC-2, 5', concentration 40
  % inhibition Apo pol 5': 60%
DRC-2, 5', concentration 80
  % inhibition Apo pol 5': 61%
DRC-2, 40', concentration 2.5
  % inhibition Apol 40': 6.56%
DRC-2, 40', concentration 5
  % inhibition Apol 40': 16%
DRC-2, 40', concentration 10
  % inhibition Apol 40': 55%
DRC-2, 40', concentration 20
  % inhibition Apol 40': 68%
DRC-2, 40', concentration 40
  % inhibition Apol 40': 75%
DRC-2, 40', concentration 80
  % inhibition Apol 40': 78%
DRC-2, 90', concentration 2.5
  % inhibition ApPOL 90': 4.51%
DRC-2, 90', concentration 5
  % inhibition ApPOL 90': 13%
DRC-2, 90', concentration 10
  % inhibition ApPOL 90': 54%
DRC-2, 90', concentration 20
  % inhibition ApPOL 90': 69%
DRC-2, 90', concentration 40
  % inhibition ApPOL 90': 77%
DRC-2, 90', concentration 80
  % inhibition ApPOL 90': 82%
DRC-2, 180', concentration 2.5
  % inhibition apPOL 180': -0.258%
DRC-2, 180', concentration 5
  % inhibition apPOL 180': 7%
DRC-2, 180', concentration 10
  % inhibition apPOL 180': 46%
DRC-2, 180', concentration 20
  % inhibition apPOL 180': 64%
DRC-2, 180', concentration 40
  % inhibition apPOL 180': 77%
DRC-2, 180', concentration 80
  % inhibition apPOL 180': 85%
Primary screen value of the library well, unit not given
  DNA Pol: 99

## O=C(O)CC1SC(c2ccc3c(c2)OCO3)=NC1=O (stereo not shown) [Molecule 69]
Supplemental file 2, sheet IC50 nontoxic compounds, Pf-apPOL
  IC50: 29.2 µM

## COC(=O)c1sc(-c2ccc(C(C)(C)C)cc2)cc1NC(=O)CCC(=O)O [Molecule 87, COC(=O)c1sc(cc1NC(=O)CCC(=O)O)c1ccc(cc1)C(C)(C)C]
'DNA Pol' of the 186 hits list (screen value)
  DNA Pol: 96
DRC-1, conc 2.5
  % inhibition Apo pol 10': 19.7971%
DRC-1, conc 5
  % inhibition Apo pol 10': 30.0237%
DRC-1, conc 10
  % inhibition Apo pol 10': 55.209%
DRC-1, conc 20
  % inhibition Apo pol 10': 85.0828%
DRC-1, conc 40
  % inhibition Apo pol 10': 94.7696%
DRC-1, conc 80
  % inhibition Apo pol 10': 96.2943%
DRC-1, 90', conc 2.5
  % inhibition Apol 90': 13.7781%
DRC-1, 90', conc 5
  % inhibition Apol 90': 20.5036%
DRC-1, 90', conc 10
  % inhibition Apol 90': 48.04%
DRC-1, 90', conc 20
  % inhibition Apol 90': 81.7697%
DRC-1, 90', conc 40
  % inhibition Apol 90': 91.7617%
DRC-1, 90', conc 80
  % inhibition Apol 90': 95.9877%
DRC-1, 180', conc 2.5
  % inhibition apPOL 180': 10.0944%
DRC-1, 180', conc 5
  % inhibition apPOL 180': 11.9548%
DRC-1, 180', conc 10
  % inhibition apPOL 180': 36.7594%
DRC-1, 180', conc 20
  % inhibition apPOL 180': 75.8676%
DRC-1, 180', conc 40
  % inhibition apPOL 180': 89.861%
DRC-1, 180', conc 80
  % inhibition apPOL 180': 95.0797%
DRC-2, 5', conc 2.5
  % inhibition Apo pol 5': 12%
DRC-2, 5', conc 5
  % inhibition Apo pol 5': 9%
DRC-2, 5', conc 10
  % inhibition Apo pol 5': 35%
DRC-2, 5', conc 20
  % inhibition Apo pol 5': 50%
DRC-2, 5', conc 40
  % inhibition Apo pol 5': 60%
DRC-2, 5', conc 80
  % inhibition Apo pol 5': 59%
DRC-2, 5', concentration 5
  % inhibition Apo pol 5': 9%
DRC-2, 40', conc 2.5
  % inhibition Apol 40': 11%
DRC-2, 40', conc 5
  % inhibition Apol 40': 9%
DRC-2, 40', conc 10
  % inhibition Apol 40': 40%
DRC-2, 40', conc 20
  % inhibition Apol 40': 61%
DRC-2, 40', conc 40
  % inhibition Apol 40': 72%
DRC-2, 40', conc 80
  % inhibition Apol 40': 72%
DRC-2, 40', concentration 5
  % inhibition Apol 40': 9%
DRC-2, 40', concentration 40
  % inhibition Apol 40': 72%
DRC-2, 40', concentration 80
  % inhibition Apol 40': 72%
DRC-2, 90', conc 2.5
  % inhibition ApPOL 90': 9%
DRC-2, 90', conc 5
  % inhibition ApPOL 90': 7%
DRC-2, 90', conc 10
  % inhibition ApPOL 90': 38%
DRC-2, 90', conc 20
  % inhibition ApPOL 90': 62%
DRC-2, 90', conc 40
  % inhibition ApPOL 90': 74%
DRC-2, 90', conc 80
  % inhibition ApPOL 90': 75%
DRC-2, 90', concentration 2.5
  % inhibition ApPOL 90': 9%
DRC-2, 180', conc 2.5
  % inhibition apPOL 180': 6%
DRC-2, 180', conc 5
  % inhibition apPOL 180': 4%
DRC-2, 180', conc 10
  % inhibition apPOL 180': 32%
DRC-2, 180', conc 20
  % inhibition apPOL 180': 57%
DRC-2, 180', conc 40
  % inhibition apPOL 180': 72%
DRC-2, 180', conc 80
  % inhibition apPOL 180': 73%
DRC-2, 180', concentration 40
  % inhibition apPOL 180': 72%
Primary screen value, "DNA Pol"
  DNA Pol: 96

## O=C(CSc1nc2ccccc2s1)Nc1ncc([N+](=O)[O-])s1 [KU0019667]
DRC-1, concentration 2.5
  % inhibition Apo pol 10': 10.9138%
DRC-1, concentration 5
  % inhibition Apo pol 10': 29.1635%
DRC-1, concentration 10
  % inhibition Apo pol 10': 61.6987%
DRC-1, concentration 20
  % inhibition Apo pol 10': 83.6526%
DRC-1, concentration 40
  % inhibition Apo pol 10': 89.1806%
DRC-1, concentration 80
  % inhibition Apo pol 10': 87.7336%
DRC-1, 90', concentration 2.5
  % inhibition Apol 90': 0.4185%
DRC-1, 90', concentration 5
  % inhibition Apol 90': 12.4734%
DRC-1, 90', concentration 10
  % inhibition Apol 90': 42.9699%
DRC-1, 90', concentration 20
  % inhibition Apol 90': 72.9689%
DRC-1, 90', concentration 40
  % inhibition Apol 90': 86.0812%
DRC-1, 90', concentration 80
  % inhibition Apol 90': 87.9131%
DRC-1, 180', concentration 2.5
  % inhibition apPOL 180': -6.305%
DRC-1, 180', concentration 5
  % inhibition apPOL 180': -0.1201%
DRC-1, 180', concentration 10
  % inhibition apPOL 180': 24.654%
DRC-1, 180', concentration 20
  % inhibition apPOL 180': 57.312%
DRC-1, 180', concentration 40
  % inhibition apPOL 180': 80.0815%
DRC-1, 180', concentration 80
  % inhibition apPOL 180': 84.5661%
DRC-2, 5', concentration 2.5
  % inhibition Apo pol 5': 0.175%
DRC-2, 5', concentration 5
  % inhibition Apo pol 5': -22%
DRC-2, 5', concentration 10
  % inhibition Apo pol 5': -38%
DRC-2, 5', concentration 20
  % inhibition Apo pol 5': -73%
DRC-2, 5', concentration 40
  % inhibition Apo pol 5': -86%
DRC-2, 5', concentration 80
  % inhibition Apo pol 5': -130%
DRC-2, 40', concentration 2.5
  % inhibition Apol 40': -1.35%
DRC-2, 40', concentration 5
  % inhibition Apol 40': -10%
DRC-2, 40', concentration 10
  % inhibition Apol 40': -13%
DRC-2, 40', concentration 20
  % inhibition Apol 40': -32%
DRC-2, 40', concentration 40
  % inhibition Apol 40': -29%
DRC-2, 40', concentration 80
  % inhibition Apol 40': -70%
DRC-2, 90', concentration 2.5
  % inhibition ApPOL 90': -3%
DRC-2, 90', concentration 5
  % inhibition ApPOL 90': -10%
DRC-2, 90', concentration 10
  % inhibition ApPOL 90': -10%
DRC-2, 90', concentration 20
  % inhibition ApPOL 90': -23%
DRC-2, 90', concentration 40
  % inhibition ApPOL 90': -14%
DRC-2, 90', concentration 80
  % inhibition ApPOL 90': -45%
DRC-2, 180', concentration 2.5
  % inhibition apPOL 180': -13%
DRC-2, 180', concentration 5
  % inhibition apPOL 180': -17%
DRC-2, 180', concentration 10
  % inhibition apPOL 180': -18%
DRC-2, 180', concentration 20
  % inhibition apPOL 180': -23%
DRC-2, 180', concentration 40
  % inhibition apPOL 180': -7%
DRC-2, 180', concentration 80
  % inhibition apPOL 180': -23%
conc. 2.5, 180', DRC-2
  % inhibition apPOL 180': -13%
conc. 5, 40', DRC-2
  % inhibition Apol 40': -10%
conc. 5, 90', DRC-2
  % inhibition ApPOL 90': -10%
conc. 10, 40', DRC-2
  % inhibition Apol 40': -13%
conc. 10, 90', DRC-2
  % inhibition ApPOL 90': -10%
conc. 20, 90', DRC-2
  % inhibition ApPOL 90': -23%
conc. 20, 180', DRC-2
  % inhibition apPOL 180': -23%
conc. 80, 180', DRC-2
  % inhibition apPOL 180': -23%
Primary screen value by plate and well
  DNA Pol: 67
Primary screen value of the 186 hits, unit not given
  DNA Pol: 67
